From ChEMBL document CHEMBL1201862, “PubChem BioAssay data set” (2004)
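Values below derive from 48-hour exposures of cells grown in 96-well plates, with endpoints linearly interpolated between the two concentrations bracketing the appropriate inhibition level. GI50 marks 50% less growth.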 Calls of active or inactive are those of the source. No stated cut-off is given here; in the data, active = GI50 up to about 1.1 µM and inactive = higher.

Legend:
Test in all cases: growth of human tumour cells (NCI), 48 h
786-0 = test system: 786-0
ACHN = test system: ACHN
EKVX = test system: EKVX
HCC 2998 = test system: HCC 2998
HCT-15 = test system: HCT-15
HL-60 = test system: HL-60
Hs-578T = test system: Hs-578T
LOX IMVI = test system: LOX IMVI
M14 = test system: M14
MDA-N = test system: MDA-N
OVCAR-4 = test system: OVCAR-4
SF-539 = test system: SF-539
SK-MEL-28 = test system: SK-MEL-28
SK-MEL-2 = test system: SK-MEL-2
SK-OV-3 = test system: SK-OV-3
SN12C = test system: SN12C
SR = test system: SR
UACC-62 = test system: UACC-62
T47D = test system: T47D

Row | Compound | GI50 (786-0) | GI50 (ACHN) | GI50 (EKVX) | GI50 (HCC 2998) | GI50 (HCT-15) [µM] | GI50 (HL-60) | GI50 (Hs-578T) | GI50 (LOX IMVI) | GI50 (M14) | GI50 (MDA-N) | GI50 (OVCAR-4) | GI50 (SF-539) | GI50 (SK-MEL-28) | GI50 (SK-MEL-2) | GI50 (SK-OV-3) | GI50 (SN12C) | GI50 (SR) | GI50 (UACC-62) | GI50 (T47D)
1 | COc1ccc(/N=N/C(=NNC(=O)c2ccc(C)cc2)c2ccc(N(C)C)cc2)cc1 | 39.1 µM (inactive) | 35.1 µM (inactive) | 37.7 µM (inactive) | 35.3 µM (inactive) | 32.4 | 2.32 µM (inactive) | > 100 µM (inactive) | 34.8 µM (inactive) | 43.1 µM (inactive) | 23.8 µM (inactive) | 31.8 µM (inactive) | > 100 µM (inactive) | > 59.7 µM (inactive) | 50.8 µM (inactive) | 31.8 µM (inactive) | 56.6 µM (inactive) | 23.1 µM (inactive) | 25.1 µM (inactive) | –
2 | O=C(O)c1cc(NCc2cc(O)ccc2O)ccc1O [LAVENDUSTIN C] | 45.3 µM (inactive) | > 100 µM (inactive) | > 100 µM (inactive) | > 100 µM (inactive) | > 100 | – | > 100 µM (inactive) | – | – | 24.8 µM (inactive) | > 100 µM (inactive) | > 100 µM (inactive) | > 100 µM (inactive) | > 100 µM (inactive) | > 100 µM (inactive) | > 100 µM (inactive) | – | > 100 µM (inactive) | 35.6 µM (inactive)
3 | O=C1CCCC2=C1CC1=C(CCCC1=O)N2c1ccccc1C(=O)O | > 100 µM (inactive) | > 100 µM (inactive) | > 100 µM (inactive) | > 100 µM (inactive) | > 100 | > 100 µM (inactive) | > 100 µM (inactive) | > 100 µM (inactive) | > 100 µM (inactive) | – | > 100 µM (inactive) | > 100 µM (inactive) | > 100 µM (inactive) | – | > 100 µM (inactive) | > 100 µM (inactive) | > 100 µM (inactive) | > 100 µM (inactive) | –
4 | Oc1c(Cl)cc2cc1-c1cc(cc(Cl)c1O)CCc1c(cc(Cl)c(O)c1Cl)-c1cc(Cl)c(c(Cl)c1O)/C=C\2 | 8.36 µM (inactive) | 13.7 µM (inactive) | – | 6.98 µM (inactive) | 7.96 | 5.61 µM (inactive) | 11.1 µM (inactive) | 9.44 µM (inactive) | 7.23 µM (inactive) | – | 9.04 µM (inactive) | – | 7.08 µM (inactive) | 8.81 µM (inactive) | 9.16 µM (inactive) | – | 3.91 µM (inactive) | 8.69 µM (inactive) | 8.41 µM (inactive)
5 | O=[N+]([O-])c1cnn(C2=CNc3ccccc3N=C2)c1 | > 100 µM (inactive) | > 100 µM (inactive) | > 100 µM (inactive) | > 100 µM (inactive) | > 100 | > 100 µM (inactive) | – | – | – | – | – | > 100 µM (inactive) | > 100 µM (inactive) | > 100 µM (inactive) | > 100 µM (inactive) | > 100 µM (inactive) | > 100 µM (inactive) | > 100 µM (inactive) | –
6 | COc1ccc(COCCOCc2nc(C#N)c(N)o2)cc1 | > 100 µM (inactive) | > 100 µM (inactive) | > 100 µM (inactive) | > 100 µM (inactive) | > 100 | > 100 µM (inactive) | – | > 100 µM (inactive) | > 100 µM (inactive) | – | > 100 µM (inactive) | > 100 µM (inactive) | > 100 µM (inactive) | > 100 µM (inactive) | > 100 µM (inactive) | > 100 µM (inactive) | > 100 µM (inactive) | > 100 µM (inactive) | > 100 µM (inactive)
7 | COC(CO[Si](C)(C)N[Si](C)(C)OCC(OC)c1ccccc1)c1ccccc1 (configuration not stated) | > 100 µM (inactive) | > 100 µM (inactive) | > 100 µM (inactive) | > 100 µM (inactive) | > 100 | > 100 µM (inactive) | – | > 100 µM (inactive) | > 100 µM (inactive) | > 100 µM (inactive) | > 100 µM (inactive) | – | > 100 µM (inactive) | > 100 µM (inactive) | > 100 µM (inactive) | > 100 µM (inactive) | > 100 µM (inactive) | > 100 µM (inactive) | > 100 µM (inactive)
8 | CCCCCCCCCCCCCCCCCCNc1ccn(C2OC(COP(=O)(O)OC3CC(n4cc(F)c(=O)[nH]c4=O)OC3COP(=O)(O)OCC3OC(n4ccc(N)nc4=O)C(O)C3O)C(O)C2O)c(=O)n1 (configuration not stated) | 1.31 µM (inactive) | 0.143 µM (active) | 32 µM (inactive) | 2.35 µM (inactive) | 12.2 | 0.26 µM (active) | > 67.8 µM (inactive) | 0.139 µM (active) | 0.453 µM (active) | – | 41.7 µM (inactive) | < 0.01 µM (active) | 24.7 µM (inactive) | 18.1 µM (inactive) | 19.9 µM (inactive) | 15.8 µM (inactive) | 0.407 µM (active) | 1.1 µM (active) | 24.5 µM (inactive)
9 | Nc1csc(-c2scc3c2OCCO3)c1N | 17.3 µM (inactive) | 36.4 µM (inactive) | 18.2 µM (inactive) | 22.4 µM (inactive) | 17.7 | 20.5 µM (inactive) | 27.8 µM (inactive) | 16 µM (inactive) | 17.8 µM (inactive) | 15.4 µM (inactive) | 26.6 µM (inactive) | 24.9 µM (inactive) | 17.5 µM (inactive) | 17.5 µM (inactive) | – | 17.3 µM (inactive) | 28.6 µM (inactive) | 14.4 µM (inactive) | –
10 | O=C(O)c1ccn(-c2cccc(-n3ccc(C(=O)O)n3)n2)n1 | > 100 µM (inactive) | > 100 µM (inactive) | > 100 µM (inactive) | – | > 100 | > 100 µM (inactive) | > 100 µM (inactive) | > 100 µM (inactive) | > 100 µM (inactive) | > 100 µM (inactive) | > 100 µM (inactive) | > 100 µM (inactive) | > 100 µM (inactive) | > 100 µM (inactive) | > 100 µM (inactive) | > 100 µM (inactive) | > 100 µM (inactive) | > 100 µM (inactive) | –
11 | O=c1oc2nc(-c3ccccc3)cc(C(F)(F)F)c2n1Cc1ccccc1 | 5.43 µM (inactive) | 11.7 µM (inactive) | 7.03 µM (inactive) | > 25.8 µM (inactive) | 1.87 | 2.15 µM (inactive) | – | 9.71 µM (inactive) | 4.33 µM (inactive) | 0.689 µM (active) | 11.6 µM (inactive) | 7.5 µM (inactive) | 50.1 µM (inactive) | 6.43 µM (inactive) | 7.8 µM (inactive) | 5.9 µM (inactive) | 0.454 µM (active) | 4.24 µM (inactive) | 3.24 µM (inactive)
12 | COc1ccc(Cc2n[nH]c(Nc3ccc(Br)cc3)nc2=O)cc1OC | > 100 µM (inactive) | > 100 µM (inactive) | > 100 µM (inactive) | > 88.1 µM (inactive) | > 100 | 57 µM (inactive) | 35 µM (inactive) | 69.5 µM (inactive) | > 89.7 µM (inactive) | – | > 100 µM (inactive) | > 100 µM (inactive) | > 89.9 µM (inactive) | 60.1 µM (inactive) | > 100 µM (inactive) | > 100 µM (inactive) | 30.3 µM (inactive) | 65.8 µM (inactive) | 94.2 µM (inactive)
13 | CC1(C)OCC(C2OC(OC(=O)c3ccc([N+](=O)[O-])cc3)C3OC(C)(C)OC23)O1 (configuration not stated) | 51.8 µM (inactive) | 60.5 µM (inactive) | 61.8 µM (inactive) | > 100 µM (inactive) | > 100 | – | – | > 100 µM (inactive) | > 100 µM (inactive) | > 100 µM (inactive) | > 100 µM (inactive) | > 100 µM (inactive) | > 100 µM (inactive) | > 100 µM (inactive) | > 100 µM (inactive) | > 100 µM (inactive) | > 100 µM (inactive) | > 100 µM (inactive) | –
14 | COP(=O)(OC)C(NC(=O)C(F)(F)F)(c1ccccc1)C(F)(F)F (configuration not stated) | > 100 µM (inactive) | > 100 µM (inactive) | > 100 µM (inactive) | > 100 µM (inactive) | > 100 | > 100 µM (inactive) | – | > 100 µM (inactive) | > 100 µM (inactive) | – | > 100 µM (inactive) | > 100 µM (inactive) | > 100 µM (inactive) | > 100 µM (inactive) | > 100 µM (inactive) | > 100 µM (inactive) | > 100 µM (inactive) | > 100 µM (inactive) | –
15 | COc1ccc2[nH]c(C(O)(Cc3cccnc3)Cc3cccnc3)cc2c1 | > 100 µM (inactive) | > 100 µM (inactive) | > 100 µM (inactive) | > 100 µM (inactive) | > 100 | – | > 100 µM (inactive) | – | > 100 µM (inactive) | – | > 100 µM (inactive) | – | > 100 µM (inactive) | > 100 µM (inactive) | > 100 µM (inactive) | > 100 µM (inactive) | > 100 µM (inactive) | > 100 µM (inactive) | > 100 µM (inactive)
16 | O=P1(c2ccccc2)c2ccccc2-c2ccccc21 | > 100 µM (inactive) | – | > 100 µM (inactive) | > 100 µM (inactive) | > 100 | 66.1 µM (inactive) | > 100 µM (inactive) | > 100 µM (inactive) | > 10 µM (inactive) | 97.7 µM (inactive) | – | > 100 µM (inactive) | > 100 µM (inactive) | > 100 µM (inactive) | > 100 µM (inactive) | > 100 µM (inactive) | – | 82.2 µM (inactive) | –
17 | COc1ccc(C(O)/C(=C/n2ccnc2)c2ccccc2)cc1OC (configuration not stated) | > 100 µM (inactive) | > 100 µM (inactive) | > 100 µM (inactive) | > 100 µM (inactive) | > 100 | > 100 µM (inactive) | – | > 100 µM (inactive) | > 100 µM (inactive) | – | > 100 µM (inactive) | > 100 µM (inactive) | > 100 µM (inactive) | > 100 µM (inactive) | > 100 µM (inactive) | > 100 µM (inactive) | > 100 µM (inactive) | > 100 µM (inactive) | –
